Results reported in patent US10604512B2, “3-(1H-indol-2-yl)-1H-indazoles and therapeutic uses thereof” (Samumed, LLC, priority 2015, dated 2020).

Tests used:
[1] = test system: Wnt activity (Sp5-Luc reporter, TCF/LEF binding sites) in SW480 colon carcinoma cells; experiment: Screening assay for Wnt activity: Sp5-Luc reporter gene assay in stably transduced SW480 colon carcinoma cells; type: cell-based; settings: Homo sapiens, overnight incubation, 10-point curve from 10 μM
In short: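 SW480 cells stably transduced with a luciferase reporter driven by an Sp5 promoter of eight TCF/LEF sites were plated at 4,000 cells/well in 1% FBS medium. They were exposed overnight at 37° C to a 10-point 1:3 dilution series from 10 μM (0.1% DMSO). Luminescence was normalized to DMSO for four-parameter EC50, or percent inhibition at 10 μM.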

[2] = test system: primary human mesenchymal stem cells (hMSCs); experiment: Induction of chondrogenesis in primary human mesenchymal stem cells (nodule imaging, Rhodamine B / Nile Red); type: cell-based
In short: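 hMSCs (passage 3–6) in incomplete chondrogenic induction medium dosed at 2700–10 nM (96-well) or 5000–2.2 nM (384-well), 0.03% DMSO, for 6 days at 37 °C. Fixed cells stained with Rhodamine B/Nile Red and nodule area imaged, normalized to DMSO wells (fold change). EC50 set against TGF-β3 (10 ng/mL); maximum activity and its dose also reported.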

| Compound | EC50 [1] | EC50 ([2]; concentration required to induce 50% levels of chondrogenesis vs TGF-β3 positive control, read-out: Conc (nM) of 50% TGF-β3 activity) | Emax ([2]; maximum chondrogenesis activity relative to TGF-β3 (10 ng/mL) positive control, read-out: Max. Activity as % TGF-β3 activity) |
| --- | --- | --- | --- |
| Fc1cccc(-c2cccc3[nH]c(-c4n[nH]c5ccc(-c6ccncc6)cc45)cc23)c1 [Compound 18, 3-(4-(3-Fluorophenyl)-1H-indol-2-yl)-5-(pyridin-4-yl)-1H-indazole] | 4.62 µM |  |  |
| CC(C)(C)CC(=O)Nc1cncc(-c2ccc3[nH]nc(-c4cc5c(-c6ccsc6)cccc5[nH]4)c3c2)c1 [Compound 296, 3,3-Dimethyl-N-(5-(3-(4-(thiophen-3-yl)-1H-indol-2-yl)-1H-indazol-5-yl)pyridin-3-yl)butanamide] | 0.455 µM |  |  |
| O=C(Nc1cncc(-c2ccc3[nH]nc(-c4cc5c(-c6ccsc6)cccc5[nH]4)c3c2)c1)C1CCCCC1 [Compound 303, N-(5-(3-(4-(Thiophen-3-yl)-1H-indol-2-yl)-1H-indazol-5-yl)pyridin-3-yl) cyclohexanecarboxamide] | 1.15 µM |  |  |
| Nc1cncc(-c2ccc3[nH]nc(-c4cc5c(-c6ccoc6)cccc5[nH]4)c3c2)c1 [Compound 311, 5-(3-(4-(Furan-3-yl)-1H-indol-2-yl)-1H-indazol-5-yl)pyridin-3-amine] | 0.04 µM | 10 nM | 197% |
| O=C(Cc1ccccc1)Nc1cncc(-c2ccc3[nH]nc(-c4cc5c(-c6ccoc6)cccc5[nH]4)c3c2)c1 [Compound 318, N-(5-(3-(4-(Furan-3-yl)-1H-indol-2-yl)-1H-indazol-5-yl)pyridin-3-yl)-2-phenylacetamide] | 1.12 µM |  |  |
| c1cc(-c2ccoc2)c2cc(-c3n[nH]c4ccc(-c5cncc(CNCC6CCCC6)c5)cc34)[nH]c2c1 [Compound 333, 1-Cyclopentyl-N-((5-(3-(4-(furan-3-yl)-1H-indol-2-yl)-1H-indazol-5-yl)pyridin-3-yl)methyl)methanamine] | 3.77 µM |  |  |
